Laboratory results published in patent publication EP4595983A1, “NANOPARTICLES FUNCTIONALISED WITH A STABILISING AGENT AND A TARGETING AGENT” (BXTA Nanotherapy Limited, priority 2024, dated 2025).
Peptide text beside a SMILES is read from it. * marks the point of attachment. Palmitoyl = CCCCCCCCCCCCCCCC(=O)*

How the values were obtained:
[1] = system: DU145 parental cells; experiment: Alamar blue viability assay; format: cell-based; details: pepducin exposure; comparative pepducin effect at both 300 nM and 600 nM
Description: (§1) Alamar blue viability assays assessed the impact of inhibiting CXCL8 pro-inflammatory signalling on the viability of various PCa cell lines (Figure 28). Three increasing concentrations of pepducin (150 nM, 300 nM and 600 nM) were assayed following a 6 h incubation. Following exposure to pepducin cells were washed in PBS and 10% Alamar blue solution added for 4 h. Fluorescence was then measured at 540 - 570 nm. […] (N = 4 +/- SEM).
(§2) Following exposure to pepducins, cells were washed in PBS and 10% Alamar blue solution added for 4 h. Fluorescence was then measured at 540 - 570 nm. […] (N=4 +/- SEM).

[2] = system: NT01; experiment: Alamar blue viability assay; format: cell-based; details: pepducin exposure; comparative pepducin effect at both 300 nM and 600 nM
Description: as §1, §2

[3] = system: sh1102 cells; experiment: Alamar blue viability assay; format: cell-based; details: pepducin exposure; comparative pepducin effect at both 300 nM and 600 nM
Description: as §1, §2

[4] = system: various PCa cell lines; experiment: Alamar blue viability assay; format: cell-based; details: 150 nM, 300 nM and 600 nM, 6 h incubation
Description: as §1

[5] = system: PC3 cells; experiment: Alamar blue viability assay; format: cell-based; details: 6 h; for cell viability (significance): 150 nM, 300 nM and 600 nM; for reduction in viability: 300 nM
Description: as §1

[6] = Solubility (peptide characteristics); format: physicochemical

Solubility [6]	Compound	cell viability / toxicity [1]	cell viability / toxicity [2]	cell viability / toxicity [3]	cell viability [4]	cell viability (significance) [5]	reduction in viability [5] [%]
–	scrambled control: scrambled control (corresponding to SEQ ID 7) (Palmitoyl-TRFLAKMHQGHKRC-NH2; SMILES CCCCCCCCCCCCCCCC(=O)N[C@H](C(=O)N[C@@H](CCCNC(=N)N)C(=O)N[C@@H](Cc1ccccc1)C(=O)N[C@@H](CC(C)C)C(=O)N[C@@H](C)C(=O)N[C@@H](CCCCN)C(=O)N[C@@H](CCSC)C(=O)N[C@@H](Cc1c[nH]cn1)C(=O)N[C@@H](CCC(N)=O)C(=O)NCC(=O)N[C@@H](Cc1c[nH]cn1)C(=O)N[C@@H](CCCCN)C(=O)N[C@@H](CCCNC(=N)N)C(=O)N[C@@H](CS)C(N)=O)[C@@H](C)O)	did not show any significant toxicity	did not show any significant toxicity	did not show any significant toxicity	did not significantly reduce cell viability	no significant affects	–
–	CCCCCCCCCCCCCCCC(=O)N[C@@H](CCCNC(=N)N)C(=O)N[C@H](C(=O)N[C@@H](CC(C)C)C(=O)N[C@@H](Cc1ccccc1)C(=O)N[C@@H](CCCCN)C(=O)N[C@@H](C)C(=O)N[C@@H](Cc1c[nH]cn1)C(=O)N[C@@H](CCSC)C(=O)NCC(=O)N[C@@H](CCC(N)=O)C(=O)N[C@@H](CCCCN)C(=O)N[C@@H](Cc1c[nH]cn1)C(=O)N[C@@H](CCCNC(=N)N)C(N)=O)[C@@H](C)O [comparative pepducin] (Palmitoyl-RTLFKAHMGQKHR-NH2)	significantly reduced cell viability	significantly reduced cell viability	significantly reduced cell viability	did not significantly reduce cell viability	–	25
1:4 (Acetonitirile:H2O)	CCCCCCCCCCCCCCCC(=O)N[C@@H](CCCNC(=N)N)C(=O)N[C@H](C(=O)N[C@@H](CC(C)C)C(=O)N[C@@H](Cc1ccccc1)C(=O)N[C@@H](CCCCN)C(=O)N[C@@H](C)C(=O)N[C@@H](Cc1c[nH]cn1)C(=O)N[C@@H](CCSC)C(=O)NCC(=O)N[C@@H](CCC(N)=O)C(=O)N[C@@H](CCCCN)C(=O)N[C@@H](Cc1c[nH]cn1)C(=O)N[C@@H](CCCNC(=N)N)C(=O)N[C@@H](CS)C(N)=O)[C@@H](C)O [SEQ ID 3, Pal-RTLFKAHMGQKHRC-NH2] (Palmitoyl-RTLFKAHMGQKHRC-NH2)	did not show any significant toxicity	did not show any significant toxicity	did not show any significant toxicity	did not significantly reduce cell viability	no significant reduction in viability	8
